Active and inactive are the calls of the source. No cut-off for these calls is given here.
Columns and labels:
[1] = Chemical stability of the compound in PBS buffer at 1 ug/ml after 24 hrs by fluorescence assay in presence of 0.3% H2O2; format: physicochemical
[2] = tested on: Radical scavenging activity; test: Antioxidant activity assessed as DPPH free radical scavenging activity over 30 mins by spectrophotometry; format: functional
[3] = Cytotoxicity against rat differentiated PC12 cells assessed as cell viability at <= 10 ug/ml after 15 hrs by MTS assay; format: cell-based; details: pc-12, 15 h
PC-12 = test: Antioxidant activity in rat differentiated PC12 cells assessed as inhibition of H2O2-induced cell death after 15 hrs by MTS assay; format: functional, cell-based

| Structure (SMILES) | Stability [1] | Activity [2] | Activity [3] | Activity (PC-12) |
| --- | --- | --- | --- | --- |
| CC(=O)c1ccc(/C=C/c2ccc(C(C)=O)cc2)cc1 | Unstable | inactive | Non-toxic | – |
| Nc1ccc(/C=C/c2ccc(N)cc2)cc1 | – | Active | Non-toxic | Active |
| CC(O)c1ccc(/C=C/c2ccc(C(C)O)cc2)cc1 (stereo not given) | – | inactive | Non-toxic | inactive |
| Oc1ccc(/C=C/c2ccc(O)cc2)cc1 | – | – | – | Active |
| C(=C\c1ccccc1)/c1ccccc1 | – | inactive | Non-toxic | – |
| N#Cc1ccc(/C=C/c2ccc(C#N)cc2)cc1 | Unstable | inactive | Non-toxic | – |

Source: ChEMBL document CHEMBL3085770, “The functional group on (E)-4,4'-disubstituted stilbenes influences toxicity and antioxidative activity in differentiated PC-12 cells” (Bioorg Med Chem Lett, 2013)
